The text below walks through data of publication PMC10112881 (Cell reports, 2023).

The test system of assay [1] is HTR induced by DOI. Description: Tolerance to DOI-induced HTR after repeated treatment. To be noted: 10 mg/kg/day IP 7 days, DOI 1 mg/kg challenge 24 h later.
For assay [2], the system named is head-twitch response. To be noted: cited from earlier work.
The test system of assay [3] is HTR induced by DOI. Kind of assay: Blockade of DOI-induced head-twitch response. The settings on record: 0.025 or 0.25 mg/kg, DOI 1 mg/kg.
In assay [4] the test system is 33 human aminergic GPCRs. Kind of assay: Pan-aminergic GPCR functional screen. It counts as cell-based. To be noted: of 33 aminergic GPCR targets tested.
The test system of assay [5] is D1/5 subtypes. Kind of assay: G protein dissociation BRET assay. It counts as cell-based, human.
Assay [6] addresses 5-HT4 (Homo sapiens, UniProt Q13639). Description: G protein dissociation BRET assay. It counts as cell-based.
In assay [7] the test system is rest of the histamine and muscarinic GPCRs. Kind of assay: G protein dissociation BRET assay. It counts as cell-based, human. A general note: In BRET a luciferase serves as donor, and the signal depends on an acceptor being close.
For assay [8], the target named is D3 (Homo sapiens, UniProt P35462). Kind of assay: G protein dissociation BRET assay. It counts as cell-based. To be noted: relative to dopamine.
The subject of assay [9] is head-twitch response. Kind of assay: Head-twitch response.
Assay [10] in a line: Open field test. It counts as in vivo, C57BL/6J mice. To be noted: 0.125 mg/kg alone or with 2-Br-LSD 1 mg/kg.
For assay [11], the system named is rat cortical neurons. Description: Dendritogenesis. It counts as cell-based.
Assay [12] is described as follows: Forced swim test. It counts as in vivo, C57BL/6J mice. The settings on record: 0.125 mg/kg before 2-Br-LSD 1 mg/kg, females and males.
Assay [13] concerns rat cortical neurons. Kind of assay: Spinogenesis in cultured cortical neurons. It counts as cell-based. The settings on record: 10 μM, 3 h at DIV18, read 24 h after onset.

Structures can show the parent of a compound that is named as a salt.

Chain of D3 (P35462 whole entry): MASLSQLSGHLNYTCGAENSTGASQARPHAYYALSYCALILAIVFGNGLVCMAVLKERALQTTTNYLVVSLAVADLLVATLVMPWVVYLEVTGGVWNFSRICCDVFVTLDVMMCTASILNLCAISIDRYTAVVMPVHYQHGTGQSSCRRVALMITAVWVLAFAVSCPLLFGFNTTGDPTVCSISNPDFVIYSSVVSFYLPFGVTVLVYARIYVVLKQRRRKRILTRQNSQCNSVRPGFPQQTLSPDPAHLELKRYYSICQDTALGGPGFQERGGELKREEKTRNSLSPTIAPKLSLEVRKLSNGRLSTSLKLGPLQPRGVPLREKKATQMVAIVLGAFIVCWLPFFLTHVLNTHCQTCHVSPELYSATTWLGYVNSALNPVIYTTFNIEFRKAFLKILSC
Chain of 5-HT4 (Q13639 whole entry): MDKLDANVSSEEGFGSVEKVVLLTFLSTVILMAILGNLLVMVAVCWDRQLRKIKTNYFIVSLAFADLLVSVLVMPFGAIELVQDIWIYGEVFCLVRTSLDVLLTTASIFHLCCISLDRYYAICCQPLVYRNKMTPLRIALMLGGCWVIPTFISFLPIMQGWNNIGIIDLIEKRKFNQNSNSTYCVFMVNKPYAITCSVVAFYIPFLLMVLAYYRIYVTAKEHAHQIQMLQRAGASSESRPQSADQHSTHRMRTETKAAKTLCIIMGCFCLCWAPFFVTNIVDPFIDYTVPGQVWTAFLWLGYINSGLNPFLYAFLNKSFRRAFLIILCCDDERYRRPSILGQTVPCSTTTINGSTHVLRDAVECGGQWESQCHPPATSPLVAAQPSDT

For the molecule `COc1cc(CC(C)N)c(OC)cc1I.Cl` (racemic) [DOI, (±)-2,5-Dimethoxy-4-iodoamphetamine hydrochloride, reference compound], the “tolerance on HTR after repeated treatment” value in assay [1] was “significant degree of tachyphylaxis”.

Turning to `CCCN1CCC[C@@H]2Cc3n[nH]cc3C[C@H]21` [(–)-quinpirole, (–)-quinpirole hydrochloride, reference compound], the “effect on the HTR induced by LSD” value in assay [2] is recorded as “does not alter the HTR”. The “reduction of the response to DOI” value in assay [3] is ~ 20%.

As for `CCN(CC)C(=O)[C@@H]1C=C2c3cccc4[nH]cc(c34)C[C@H]2N(C)C1.CCN(CC)C(=O)[C@@H]1C=C2c3cccc4[nH]cc(c34)C[C@H]2N(C)C1.O=C(O)C(O)C(O)C(=O)O` [LSD, (+)-lysergic acid diethylamide (2:1) (+)-tartrate, reference compound], the “number of aminergic GPCR targets with agonist activity” value in [4] is 20. The “agonism at D1/5 subtypes” value in [5] is on record as “demonstrates agonist activity”. In addition, the “activity at 5-HT4” value in assay [6] is “lack potent agonist or antagonist activity”. Besides, the “agonism or antagonism at the rest of the histamine and muscarinic GPCRs” value in assay [7] is listed as “neither 2-Br-LSD nor LSD possessed weak agonism or antagonism”. Moreover, the EMAX in assay [8] is recorded as 75%. For the same molecule, in [9] (0.1 mg/kg IP, male C57BL/6J mice, 60 min), the “induction of the HTR” value is given as “significant increase in HTR counts”.

Take `COc1cccc([C@H](O)C2CCN(CCc3ccc(F)cc3)CC2)c1OC` [Vol, volinanserin, reference compound]: in [10], the “locomotion in the OF” value is “Neither Vol nor a combination of Vol and 2-Br-LSD affected locomotion”. Moreover, the “dendritic arbor complexity, administered alone” value in assay [11] (0.1–1 μM) is on record as “did not change any parameter linked to dendritic arbor complexity”. For the same molecule, the “effect of pre-treatment on 2-Br-LSD-induced total dendrite length” value in assay [11] (before 2-Br-LSD 1 μM) is recorded as “blocked the increase in total dendrite length”. Also, the “effect of pre-treatment on 2-Br-LSD decrease in immobility” value in [12] is “blocked the decrease in immobility”.

Regarding `COc1ccccc1N1CCN(CCN(C(=O)C2CCCCC2)c2ccccn2)CC1.O=C(O)/C=C\C(=O)O` [WAY-100,635, N-[2-[4-(2-Methoxyphenyl)-1-piperazinyl]ethyl]-N-(2-pyridinyl)cyclohexanecarboxamide maleate, reference compound], the “effect of pre-treatment on the response to 2-Br-LSD in the HTR assay” value in assay [9] (1 mg/kg WAY-100,635, then 2-Br-LSD 3 mg/kg) is given as “had no effect”.

As for `CNC1(c2ccccc2Cl)CCCCC1=O` (stereo not drawn) [ketamine, Ketamine hydrochloride, reference compound], the spine density entry in assay [13] is recorded as “spine density increased”.
